Where “and” joins values, the source holds several entries; their conditions need not be identical. Equal entries are not always repeated. Toxic doses and inconclusive results are not listed.
Tested on: CD2F1 mice, L1210 leukemia ip, survival T/C
Experiment: NCI In Vivo Anticancer Drug Screen. Data for tumor model L1210 Leukemia (intraperitoneal) in CD2F1 (CDF1) mice
Settings: higher = longer survival
How it was run: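 Activity against a transplanted murine tumor was judged by comparing the compound group with a vehicle group. The outcome in the treated animals was divided by that in the controls.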

[1] = endpoint: mean survival time, dose: 100.0 mg/kg/injection, schedule: Q04DX003 (ip), vehicle: saline with Tween-80
[2] = endpoint: mean survival time, dose: 200.0 mg/kg/injection, schedule: Q04DX003 (ip), vehicle: saline with Tween-80
[3] = endpoint: mean survival time, dose: 400.0 mg/kg/injection, schedule: Q04DX003 (ip), vehicle: saline with Tween-80
[4] = endpoint: mean survival time, dose: 100.0 mg/kg/injection, schedule: Q04DX002 (ip), vehicle: saline with Tween-80
[5] = endpoint: mean survival time, dose: 200.0 mg/kg/injection, schedule: Q04DX002 (ip), vehicle: saline with Tween-80
[6] = endpoint: mean survival time, dose: 400.0 mg/kg/injection, schedule: Q04DX002 (ip), vehicle: saline with Tween-80

Cc1ccccc1OP(=O)(c1ccccc1)c1ccccc1 was tested. Which T/C [1] did it give?
Its T/C is 100 % of control.

And the T/C [2]?
The T/C was 105 % of control.

What about the T/C [3] of the same compound?
The T/C was 110 % of control.

With O=C(O)c1c(Cl)c(Cl)c(Cl)c(Cl)c1C(=O)O as the compound, how does the T/C [4] read?
The T/C was 97 % of control.

What about the T/C [5] of the same compound?
The T/C was 101 % of control.

What about the T/C [6] of the same compound?
The T/C was 105 % of control.

How did the T/C (endpoint: mean survival time, dose: 12.5 mg/kg/injection, schedule: Q04DX003 (ip), vehicle: Klucel (hydroxypropylcellulose) (HPC)) turn out when CC12CCC(=O)C=C1CCC1C2CCC2(C)C1CCC2(O)C(=O)Cn1c(=O)[nH]cc(F)c1=O (centres undefined) was run?
Its T/C is 93 % of control.

What about the T/C (endpoint: mean survival time, dose: 25.0 mg/kg/injection, schedule: Q04DX003 (ip), vehicle: Klucel (hydroxypropylcellulose) (HPC)) of the same compound?
The T/C was 96 % of control.

And the T/C (endpoint: mean survival time, dose: 50.0 mg/kg/injection, schedule: Q04DX003 (ip), vehicle: Klucel (hydroxypropylcellulose) (HPC))?
Its T/C is 93 % of control.

What about the T/C (endpoint: mean survival time, dose: 100.0 mg/kg/injection, schedule: Q04DX003 (ip), vehicle: Klucel (hydroxypropylcellulose) (HPC)) of the same compound?
The T/C was 100 % of control.

What about the T/C (endpoint: mean survival time, dose: 200.0 mg/kg/injection, schedule: Q04DX003 (ip), vehicle: Klucel (hydroxypropylcellulose) (HPC)) of the same compound?
Its T/C is 96 % of control.

For CC(N(N=O)c1cccc(Cl)c1)S(=O)(=O)O (centres undefined), which T/C [4] is on record?
Its T/C is 101 % of control.

And the T/C [5]?
Its T/C is 97 % of control.

What about the T/C [6] of the same compound?
The T/C was 86 % of control.

What does the source list for CC1CC(C)(C)OC(C(C)C)O1 (centres undefined)?
T/C [4]: 96 % of control; T/C [5]: 96 % of control; T/C [6]: 96 % of control

Which results are given for NC1CCCCC1N.O=S(=O)([O-])c1cccc(S(=O)(=O)[O-])c1.[Pt+4]?
T/C (endpoint: median survival time, dose: 6.25 mg/kg/injection, schedule: Q04DX003 (ip), vehicle: saline with Tween-80): 166 % of control; T/C (endpoint: median survival time, dose: 12.5 mg/kg/injection, schedule: Q04DX003 (ip), vehicle: saline with Tween-80): 237 % of control and 370 % of control; T/C (endpoint: median survival time, dose: 25.0 mg/kg/injection, schedule: Q04DX003 (ip), vehicle: saline with Tween-80): 296 % of control and 325 % of control

O=C(NCc1ccccc1)C1C2CC3OC(=O)C1C3C2 (centres undefined) was tested. Which T/C (endpoint: mean survival time, dose: 12.5 mg/kg/injection, schedule: Q04DX003 (ip), vehicle: saline with Tween-80) did it give?
The T/C was 112 % of control.

What about the T/C (endpoint: mean survival time, dose: 12.5 mg/kg/injection, schedule: Q04DX003 (ip), vehicle: saline) of the same compound?
The T/C was 106 % of control.

What about the T/C (endpoint: mean survival time, dose: 25.0 mg/kg/injection, schedule: Q04DX003 (ip), vehicle: saline with Tween-80) of the same compound?
Its T/C is 114 % of control.

What about the T/C (endpoint: mean survival time, dose: 25.0 mg/kg/injection, schedule: Q04DX003 (ip), vehicle: saline) of the same compound?
Its T/C is 108 % of control.

And the T/C (endpoint: mean survival time, dose: 50.0 mg/kg/injection, schedule: Q04DX003 (ip), vehicle: saline with Tween-80)?
Its T/C is 114 % of control.

What about the T/C (endpoint: mean survival time, dose: 50.0 mg/kg/injection, schedule: Q04DX003 (ip), vehicle: saline) of the same compound?
The T/C was 110 % of control.

What about the T/C [1] of the same compound?
The T/C was 114 % of control.

What about the T/C (endpoint: mean survival time, dose: 100.0 mg/kg/injection, schedule: Q04DX003 (ip), vehicle: saline) of the same compound?
Its T/C is 108 % of control.

Which T/C [1] does the source give for Cc1cc(NC(=O)c2ccc(Cl)cc2)ccc1Cl here?
The T/C was 97 % of control.

And the T/C [2]?
Its T/C is 97 % of control.

And the T/C [3]?
The T/C was 106 % of control.

Which results are given for COc1ccc(CCN)cc1OC?
T/C (endpoint: mean survival time, dose: 50.0 mg/kg/injection, schedule: Q01DX009 (ip), vehicle: saline): 94 % of control; T/C (endpoint: mean survival time, dose: 100.0 mg/kg/injection, schedule: Q01DX009 (ip), vehicle: saline): 94 % of control; T/C [1]: 97 % of control; T/C (endpoint: mean survival time, dose: 200.0 mg/kg/injection, schedule: Q01DX009 (ip), vehicle: saline): 97 % of control; T/C [2]: 93 % of control

What does the source list for CC(=O)c1ccc([NH-])c([NH-])c1.[Cl][Pt+2][Cl]?
T/C (endpoint: mean survival time, dose: 2.5 mg/kg/injection, schedule: Q01DX009 (ip), vehicle: distilled water + Tween-80): 102 % of control; T/C (endpoint: mean survival time, dose: 5.0 mg/kg/injection, schedule: Q01DX009 (ip), vehicle: distilled water + Tween-80): 104 % of control; T/C (endpoint: mean survival time, dose: 10.0 mg/kg/injection, schedule: Q01DX009 (ip), vehicle: distilled water + Tween-80): 109 % of control and 112 % of control; T/C (endpoint: mean survival time, dose: 20.0 mg/kg/injection, schedule: Q01DX009 (ip), vehicle: distilled water + Tween-80): 114 % of control

How did the T/C [4] turn out when Nc1ccc(S(=O)(=O)c2ccc(N3CCOCC3)c(N)c2)cc1 was run?
The T/C was 105 % of control.

And the T/C [5]?
Its T/C is 94 % of control.

And the T/C [6]?
Its T/C is 97 % of control.

For CCOC(=O)C1CC(c2ccccc2)=NN1c1ccccc1 (centres undefined), which T/C (endpoint: mean survival time, dose: 12.5 mg/kg/injection, schedule: Q01DX009 (ip), vehicle: Klucel (hydroxypropylcellulose) (HPC)) is on record?
Its T/C is 95 % of control.

What about the T/C (endpoint: mean survival time, dose: 25.0 mg/kg/injection, schedule: Q01DX009 (ip), vehicle: Klucel (hydroxypropylcellulose) (HPC)) of the same compound?
Its T/C is 101 % of control.

What about the T/C (endpoint: mean survival time, dose: 50.0 mg/kg/injection, schedule: Q01DX009 (ip), vehicle: Klucel (hydroxypropylcellulose) (HPC)) of the same compound?
Its T/C is 102 % of control.

And the T/C (endpoint: mean survival time, dose: 100.0 mg/kg/injection, schedule: Q01DX009 (ip), vehicle: Klucel (hydroxypropylcellulose) (HPC))?
The T/C was 101 % of control.

And the T/C (endpoint: mean survival time, dose: 200.0 mg/kg/injection, schedule: Q01DX009 (ip), vehicle: Klucel (hydroxypropylcellulose) (HPC))?
The T/C was 95 % of control.

And the T/C (endpoint: mean survival time, dose: 400.0 mg/kg/injection, schedule: Q01DX009 (ip), vehicle: Klucel (hydroxypropylcellulose) (HPC))?
Its T/C is 98 % of control.

Which T/C (endpoint: mean survival time, dose: 150.0 mg/kg/injection, schedule: Q01DX009 (ip), vehicle: saline sonified) does the source give for NNc1ncnc2c(C3OC(CO)C(O)C3O)[nH]nc12 (centres undefined) here?
Its T/C is 155 % of control.

What does the source list for CCCOC(=O)c1ccc(N2N=C(C)CCC2=O)cc1?
T/C (endpoint: mean survival time, dose: 25.0 mg/kg/injection, schedule: Q04DX002 (ip), vehicle: saline with Tween-80): 97 % of control; T/C (endpoint: mean survival time, dose: 50.0 mg/kg/injection, schedule: Q04DX002 (ip), vehicle: saline with Tween-80): 102 % of control; T/C [4]: 97 % of control

For O=C(CC1(Cl)C(F)(F)C(F)(F)C1(F)F)c1ccccc1, which T/C (endpoint: mean survival time, dose: 100.0 mg/kg/injection, schedule: Q01DX001 (ip), vehicle: saline with Tween-80) is on record?
Its T/C is 95 % of control.

Reference: PubChem BioAssay AID256 (DTP/NCI, 2004)
